Data reported in publication PMC11212559 (Emerging Microbes & Infections, 2024).

Biological target: E1CTD (Monkeypox virus Zaire-96-I-16, UniProt Q8V4Y7)

C[S+](CC[C@H](N)C(=O)O)C[C@H]1O[C@@H](n2cnc3c(N)ncnc32)[C@H](O)[C@@H]1O (stereo partly shown) [SAM]
no detectable binding ability: the E1CTD also shows no detectable binding ability to SAM
